Results taken from PMC4926326, “Synthesis, Biological Activity, and Apoptotic Properties of NO-Donor/Enmein-Type ent-Kauranoid Hybrids” (International Journal of Molecular Sciences, 2016).
Converted amounts (≈) assume the structure as drawn.

Tests used:
[1] = test system: Bel-7402 hepatoma cell line; assay: MTT antiproliferative assay; format: cell-based, human
Protocol: (§1) The antiproliferative activity of 9a–i against four human cancer cell lines K562 leukemia cell line, MGC-803 gastric cancer cell line, CaEs-17 esophageal cancer cell line, and Bel-7402 hepatoma cell line, and human normal liver cells L-02 was evaluated by MTT assay (Table 2).
(§2) MTT assay was developed to monitor mammalian cell survival and proliferation in vitro [32]. CaEs-17 cells (K562, Bel-7402 and MGC-803 cells) from American Type Culture Collection (ATCC, Manassas, VA, USA) were cultivated in RPMI-1640 medium supplemented with 5% fetal bovine serum (v/v), 100 U/mL penicillin, and […] streptomycin. Cells (5 × 10^4 cell/mL) at the log phase of their growth cycle were added to each well of a 96-well plate (100 µL/well) and incubated for 24 h at 37 °C in a humidified atmosphere of 5% CO2. Then, cells were treated with or without test compounds in different concentrations. After 72 h, 5 mg/mL MTT solution (20 µL per well) was added. Cells were incubated at 37 °C. After 4 h, MTT solution was removed and DMSO was added to each well (150 µL). Ten minutes later at room temperature, the optical density (OD) values were measured at the wavelength of 490 nm on a Microplate Reader NO. 550 (BIO-RAD Instruments Inc., Hercules, CA, USA). In this experiment, 10 µg/mL of Taxol was used as the positive control and 0.1% DMSO was used as the negative reference.

[2] = test system: K562 leukemia cell line; assay: MTT antiproliferative assay; format: cell-based, human; conditions: Homo sapiens, K562, 72 h, MTT, 72 h, mean ± SD of three experiments; read-out: IC50 K562
Protocol: as §1, §2

[3] = test system: MGC-803 gastric cancer cell line; assay: MTT antiproliferative assay; format: cell-based, human; conditions: Homo sapiens, MGC-803, 72 h, MTT, 72 h, mean ± SD of three experiments; read-out: IC50 MGC-803
Protocol: as §1, §2

[4] = test system: Monilia albicans (ATCC 10231); assay: Antifungal assay, microbroth dilution MIC; format: cell-based; conditions: Candida albicans, ATCC10231; 35 °C, 18 h; read-out: MIC M. albicans
Excerpt: (§3) The antibacterial activity of NO donor/enmein-type ent-kauranoid hybrids 9a–i against the Gram-negative bacterium Escherichia coli (ATCC 25922), Gram-positive bacterium Staphylococcus aureus (ATCC 29213) and Bacillus subtilis (CMCC 63501), and the fungus Monilia albicans (ATCC 10231) was first disclosed and summarized in Table 1. […] Thus, the introduction of NO-donor substituent groups at the 14-position of enmein-type 6,7-seco-ent-kauranoid could improve antimicrobial activity against S. aureus and B. subtilis.
(§4) The minimal inhibitory concentrations (MICs) were carried out by microbroth dilution method described by the Clinical Laboratory Standards Institute. A stock solution of all the target compounds was prepared with DMSO-medium (1:2), and then graded quantities of the test compounds were diluted with medium. The specified concentration suspension of fungus and bacterium contained approximately 10^3, and 10^5 CFU/mL was added into microtitration plates. The inoculated 96-well plates were incubated at 35 °C for 18 h. MIC was defined as the lowest concentrations that prevented visible growth of the bacteria.

[5] = test system: human normal liver cells L-02; assay: MTT assay on normal cells; format: cell-based; conditions: MTT, 72 h, normal liver cells, mean ± SD of three experiments, read-out: IC50 L-02
Protocol: as §1, §2

[6] = test system: Bel-7402 cells; assay: Cell cycle distribution by PI staining and flow cytometry; format: cell-based, human; conditions: 48 h, control 25.51%
Excerpt: Cell cycle arrest is an important sign for inhibition of proliferation and the series of events that take place in a cell leading to its division and replication. […] As the inhibitory effect of 9f on cell proliferation was observed, we next assessed the effect on the cell cycle distribution of Bel-7402 cells by flow cytometry (Figure 2). […] Compound 9f could influence Bel-7402 cell cycle progression at low micromolar concentrations in a dose-dependent manner.
Bel-7402 cells (5.0 × 10^3 cells/well) were plated in 6-well plates and incubated for 24 h, and then incubated with different concentrations (0.25, 0.5 and 1 μM) of 9f at 37 °C for 48 h. After 48 h treatment, cells were treated with 70% ethanol and RNase, sequentially, and stained with PI [34]. Cellular DNA content was measured by a flow cytometer for cell cycle distribution analysis.

[7] = test system: Bel-7402 cells; assay: Apoptosis by Annexin-V and PI double staining, flow cytometry; format: cell-based, human; conditions: 72 h; for total percentage of apoptotic cells (early and late, Q2 + Q4): vehicle 7.88%
Protocol: To examine the potent cancer cell antiproliferative effect of 9f on Bel-7402 cells, the number of apoptotic cells was monitored using flow cytometry. The total percentage of apoptotic cells (early and late, Q2 + Q4) was 7.88% treated with a vehicle alone.
Bel-7402 cells were incubated with different concentrations (0.25, 0.5 and 1 μM) of 9f for 72 h. Then, Annexin-V and PI double staining was used to detect apoptotic cells to analyze apoptosis according to the manufacturer’s instructions by flow cytometry.

[8] = test system: CaEs-17 esophageal cancer cell line; assay: MTT antiproliferative assay; format: cell-based; conditions: Homo sapiens, CaEs17; MTT, 72 h, mean ± SD of three experiments; read-out: IC50 CaEs-17
Protocol: as §1, §2

[9] = test system: Bel-7402 cells; assay: Mitochondrial membrane potential, JC-1 staining, flow cytometry; format: cell-based, human; conditions: 48 h, 0 μM 4.62%
Protocol: In the field of cancer, cellular apoptosis plays a very important role. The loss of mitochondrial membrane potential is a key event during drug-induced apoptosis. In order to investigate the mitochondria related effect of 9f, the fluorescent probe JC-1 (Keygen, KGA601, Nanjing, China) was used to detect the changes on mitochondrial membrane potential. Before Bel-7402 cells were stained with JC-1, cells were incubated with 0, 0.15, 0.3, and 0.6 μM of 9f. Then, the flow cytometry analysis was carried out to determine the cell numbers with collapsed mitochondria in different cell groups (Figure 4).
Bel-7402 cells were cultured in six-well plates after treatment with 9f or vehicles for 48 h. The cells were cells were collected by trypsinization, washed with PBS (Sigma Chemical Co., Shanghai, China) and stained according to the manufacturer’s instruction (Keygen, KGA601, Nanjing, China) with the lipophilic cationic dye JC-1. The flow cytometry analysis was carried out to monitor the percentage of cells with healthy or collapsed mitochondrial membrane potentials.

[10] = test system: Bacillus subtilis (CMCC 63501); assay: Antibacterial assay, microbroth dilution MIC; format: cell-based; conditions: Bacillus subtilis, CMCC63501; 35 °C, 18 h; read-out: MIC B. subtilis
Excerpt: as §3, §4

[11] = test system: Escherichia coli (ATCC 25922); assay: Antibacterial assay, microbroth dilution MIC; format: cell-based; conditions: Escherichia coli, ATCC25922; 35 °C, 18 h; read-out: MIC E. coli
Excerpt: as §3, §4

[12] = test system: Staphylococcus aureus (ATCC 29213); assay: Antibacterial assay, microbroth dilution MIC; format: cell-based; conditions: Staphylococcus aureus, ATCC29213; 35 °C, 18 h; read-out: MIC S. aureus
Excerpt: as §3, §4

SMILES: C=C1C(=O)[C@@]23C(=O)O[C@H]4CCC(C)(C)[C@H]5[C@H](O)OC[C@@]45[C@@H]2CC[C@@H]1[C@H]3OC(=O)c1ccccc1C(=O)OCCCOc1no[n+]([O-])c1S(=O)(=O)c1ccccc1 [Compound 9f]
- IC50 ([1]; Homo sapiens, Bel-7402, MTT, 72 h, mean ± SD of three experiments, read-out: IC50 Bel-7402): 720 ± 40 nM
- SI (selectivity index) ([1]; SI = IC50, L-02/IC50, Bel-7402): 26.1
- IC50 [2]: 1680 ± 120 nM
- IC50 [3]: 1110 ± 50 nM
- MIC [4]: > 100 µg/mL
- IC50 [5]: 18800 ± 1250 nM
- cells in S phase ([6]; 0.25 μM): 31.78%
- cells in S phase ([6]; 0.5 μM): 45.33%
- cells in S phase ([6]; 1 μM): 49.78%
- apoptotic cells, fold of control group ([7]; 0.25 μM): 2.76 fold
- total percentage of apoptotic cells (early and late, Q2 + Q4) ([7]; 0.25 μM): 21.74%
- apoptotic cells, fold of control group ([7]; 0.5 μM): 4.54 fold
- total percentage of apoptotic cells (early and late, Q2 + Q4) ([7]; 0.5 μM): 35.78%
- apoptotic cells, fold of control group ([7]; 1 μM): 8.01 fold
- total percentage of apoptotic cells (early and late, Q2 + Q4) ([7]; 1 μM): 63.15%
- IC50 [8]: 3600 ± 120 nM
- percentage of apoptotic cells (collapsed mitochondria, JC-1) ([9]; 0.15 μM): 8.81%
- percentage of apoptotic cells (collapsed mitochondria, JC-1) ([9]; 0.3 μM): 21.82%
- percentage of apoptotic cells (collapsed mitochondria, JC-1) ([9]; 0.6 μM): 25.98%
- melting point: 128 to 130 °C
- MIC [10]: 64 µg/mL (≈ 80.7 µM)
- MIC [11]: > 100 µg/mL
- MIC [12]: 32 µg/mL (≈ 40.4 µM)
